Test results: patent US7005417B1, “Echinocandin derivatives, method for preparing same and use as antifungal agents” (Aventis Pharma S.A., priority 1999, dated 2006)

Tested on: Glucan Synthase of Candida albicans
Test: Inhibition of the Glucan Synthase of Candida albicans
Type: biochemical
Details: Candida albicans membranes, 14C-UDP glucose, 25° C. for 1 hour
Description: A—Inhibition of the Glucan Synthase of Candida albicans
Candida albicans membranes were purified according to the process described by Tang et al Antimicrob. Agents Chemother 35, 99–103, 1991. 22.5 μg of membrane proteins are incubated in a mixture of 2 Mm of 14C-UDP glucose (specific activity=0.34 mCi./mmol, 50 μg of α-amylase, 1 Mm of dithiotreitol (DTT), 1 Mm EDTA, 100 Mm NaF, 7 μM of GTP-γ-S, 1 M of sucrose and 50 Mm of Tris-HCL (pH 7.8) in a volume of 100 μl. The medium is incubated at 25° C. for 1 hour and the reaction is terminated by adding TCA at a final concentration of 5%. The reaction mixture is transferred onto a pre-humidified glass fibre filter. The filter is washed, dried and its radioactivity is counted.
Mulundocandine is used as a positive control.
Control of the vehicle is carried out with the same quantity of 1% DMSO.

1-[4-[(2-aminoethyl)amino]-N2-[[4-[5-[4-pentyloxy)-phenyl]-3-isoxazolyl]-phenyl]-carbonyl]-L-ornithine]-4-(4-hydroxyphenyl)-L-threonine]-5-L-serine-echinocandine B [Example 1]
Inhibition of the Glucan Synthase of Candida albicans: good activity
